Results: ChEMBL document CHEMBL5528018, “Whole cell hydride Meisenheimer complex biotransformation guided optimization of antimycobacterial benzothiazinones” (Eur J Med Chem, 2024)
In brackets after ≈: the same amount, converted by molar mass.

Assays:
[1] = tested on: Mycobacterium tuberculosis; assay: Antitubercular activity against Mycobacterium tuberculosis H37Rv by resazurin dye based microtiter plate assay; type: functional
[2] = Cytotoxicity against human HeLa cells assessed as cytolytic effect incubated for 72 hrs by methylene blue staining based colorimetric analysis; type: toxicity, cell-based
[3] = Selectivity index, ratio of CC50 for cytotoxicity against human HeLa cells to MIC for antitubercular activity against Mycobacterium tuberculosis H37Rv; type: toxicity, cell-based; details: read-out: Selectivity Index
[4] = Metabolic stability in human liver assessed as intrinsic clearance at 20 uM measured upto 90 mins in presence of NADP regenerating system by high-resolution mass spectrometry; type: ADME, tissue-based; details: read-out: CLH
[5] = Metabolic stability in human liver microsomes assessed as hepatic extraction ratio at 20 uM measured upto 90 mins in presence of NADP regenerating system by high-resolution mass spectrometry; type: ADME, Microsome; details: read-out: ERH
[6] = Metabolic stability in human liver microsomes assessed as intrinsic clearance at 20 uM measured upto 90 mins in presence of NADP regenerating system by high-resolution mass spectrometry; type: ADME, Microsome; details: read-out: CLH
[7] = Metabolic stability in human liver microsomes assessed as half life at 20 uM measured upto 90 mins in presence of NADP regenerating system by high-resolution mass spectrometry; type: ADME, Microsome
[8] = Half life in mouse RAW264.7 cells at 77 uM incubated for 8 hrs by UHPLC-HRMS analysis; type: ADME, cell-based
[9] = Tmax in mouse RAW264.7 cells at 77 uM incubated for 8 hrs by UHPLC-HRMS analysis; type: ADME, cell-based
[10] = Cmax in mouse RAW264.7 cells at 77 uM incubated for 8 hrs by UHPLC-HRMS analysis; type: ADME, cell-based
[11] = Drug metabolism in CD1 mouse heart assessed as hydride meisenheimer complex formation by UHPLC-HRMS analysis; type: ADME, tissue-based
[12] = Drug metabolism in cattle assessed as hydride meisenheimer complex formation by UHPLC-HRMS analysis; type: ADME, Bos taurus
[13] = Drug metabolism in goat assessed as hydride meisenheimer complex formation by UHPLC-HRMS analysis; type: ADME, Capra hircus
[14] = Drug metabolism in rat assessed as hydride meisenheimer complex formation by UHPLC-HRMS analysis; type: ADME
[15] = Drug metabolism in CD1 mouse spleen assessed as hydride meisenheimer complex formation by UHPLC-HRMS analysis; type: ADME, tissue-based
[16] = Drug metabolism in CD1 mouse brain assessed as hydride meisenheimer complex formation by UHPLC-HRMS analysis; type: ADME, tissue-based
[17] = Drug metabolism in CD1 mouse muscle assessed as hydride meisenheimer complex formation by UHPLC-HRMS analysis; type: ADME, tissue-based, Muscle tissue
[18] = Drug metabolism in CD1 mouse kidney assessed as hydride meisenheimer complex formation by UHPLC-HRMS analysis; type: ADME, tissue-based
[19] = Drug metabolism in CD1 mouse lung assessed as hydride meisenheimer complex formation by UHPLC-HRMS analysis; type: ADME, tissue-based
[20] = Drug metabolism in CD1 mouse blood assessed as hydride meisenheimer complex formation by UHPLC-HRMS analysis; type: ADME, tissue-based
[21] = Drug metabolism in CD1 mouse liver assessed as hydride meisenheimer complex formation by UHPLC-HRMS analysis; type: ADME, tissue-based
[22] = Drug metabolism in sheep assessed as hydride meisenheimer complex formation by UHPLC-HRMS analysis; type: ADME, Ovis aries
[23] = Toxicity in BALB/c mouse infected with Mycobacterium tuberculosis H37Rv assessed as drug tolerance at 25 to 250 mg/kg/day, po qd administered for 6 weeks; type: organism-based; details: in vivo, 1008 h, dose 25-250 mg/kg/day
[24] = Cmax in BALB/cAnNCrl mouse at 250 mg/kg, po measured upto 24 hrs by UHPLC-HRMS analysis; type: ADME, organism-based; details: in vivo
[25] = tested on: Mycobacterium tuberculosis; assay: Antitubercular activity against Mycobacterium tuberculosis H37Rv infected in BALB/c mouse assessed as reduction of colony forming unit in lung administered once daily for 6 weeks by agar dilution method; type: functional, organism-based; details: dose 25-250 mg/kg/day, route po
[26] = Half life in BALB/cAnNCrl mouse at 250 mg/kg, po measured upto 24 hrs by UHPLC-HRMS analysis; type: ADME, organism-based; details: in vivo
[27] = AUC (0 to infinity) in BALB/cAnNCrl mouse at 250 mg/kg, po measured upto 24 hrs by UHPLC-HRMS analysis; type: ADME, organism-based; details: in vivo
[28] = Stability in mouse RAW264.7 cells assessed as parent compound remaining at 77 uM after 8 hrs by UHPLC-HRMS analysis; type: ADME, cell-based; details: read-out: Stability
[29] = Apparent oral clearance in BALB/cAnNCrl mouse at 250 mg/kg measured upto 24 hrs by UHPLC-HRMS analysis; type: ADME, organism-based; details: in vivo
[30] = tested on: Mycobacterium tuberculosis; assay: Antitubercular activity against Mycobacterium tuberculosis H37Rv infected in BALB/c mouse assessed as reduction of colony forming unit in spleen administered once daily for 6 weeks by agar dilution method; type: functional, organism-based; details: dose 25-250 mg/kg/day, route po
[31] = Tmax in BALB/cAnNCrl mouse at 250 mg/kg, po measured upto 24 hrs by UHPLC-HRMS analysis; type: ADME, organism-based; details: in vivo
[32] = Drug metabolism in BALB/c cAnNCrl mouse assessed as HMC metabolite formation at 250 mg/kg, po measured upto 24 hrs by UHPLC-HRMS analysis; type: ADME, organism-based; details: in vivo
[33] = Apparent volume of distribution during terminal phase in BALB/cAnNCrl mouse at 250 mg/kg, po measured upto 24 hrs by UHPLC-HRMS analysis; type: ADME, organism-based; details: in vivo, read-out: Vz/F

Structure (SMILES): O=c1nc(N2CCN(S(=O)(=O)c3ccc(OC(F)(F)F)cc3)CC2)sc2c([N+](=O)[O-])cc(C(F)(F)F)cc12
- MIC [1]: 0.108 µM (≈ 0.0631 µg/mL)
- CC50 at 72 h [2]: 43 µM
- selectivity ratio [3]: 397

Structure (SMILES): Cc1c(C(F)(F)F)cc2c(=O)nc(N3CCC4(CC3)OC[C@H](C)O4)sc2c1[N+](=O)[O-]
- CLint scaled at 20 µM [4]: 9.8 mL/min/kg
- hepatic extraction ratio at 1.5 h, 20 µM [5]: 0.329
- MIC [1]: 0.842 µM (≈ 0.375 µg/mL)
- CC50 at 72 h [2]: 87 µM
- microsomal CLint at 20 µM [6]: 8.5 µL/min/mg
- selectivity ratio [3]: 104
- half-life at 20 µM [7]: 2.75 h

Structure (SMILES): C[C@H]1COC2(CCN(c3nc(=O)c4cc(C(F)(F)F)cc(N)c4s3)CC2)O1
- half-life at 77 µM [8]: 13 h
- Tmax at 77 µM [9]: 8 h
- Cmax at 77 µM [10]: 2000 ng/mL

Structure (SMILES): Cc1c(C(F)(F)F)cc([N+](=O)[O-])c2sc(N3CCC(Oc4ccc(OC(F)(F)F)cc4)CC3)nc(=O)c12
- CLint scaled at 20 µM [4]: 47.1 mL/min/kg
- hepatic extraction ratio at 1.5 h, 20 µM [5]: 0.702
- MIC [1]: 0.91 µM (≈ 0.5 µg/mL)
- CC50 at 72 h [2]: > 91 µM
- microsomal CLint at 20 µM [6]: 40.8 µL/min/mg
- selectivity ratio [3]: 100
- half-life at 20 µM [7]: 0.572 h

Structure (SMILES): O=c1nc(N2CCC(Oc3ccc(OC(F)(F)F)cc3)CC2)sc2c([N+](=O)[O-])cc(C(F)(F)F)cc12
- MIC [1]: 0.0056 µM (≈ 0.003 µg/mL)
- CC50 at 72 h [2]: > 93 µM
- selectivity ratio [3]: 16700

Structure (SMILES): Cc1c(C(F)(F)F)cc2c(=O)nc(N3CCC(Oc4ccc(OC(F)(F)F)cc4)CC3)sc2c1[N+](=O)[O-]
- CLint scaled at 20 µM [4]: 23.8 mL/min/kg
- hepatic extraction ratio at 1.5 h, 20 µM [5]: 0.543
- MIC [1]: 3.64 µM (≈ 2 µg/mL)
- CC50 at 72 h [2]: > 91 µM
- microsomal CLint at 20 µM [6]: 20.6 µL/min/mg
- selectivity ratio [3]: 25
- half-life at 20 µM [7]: 1.13 h

Structure (SMILES): Cc1c(C(F)(F)F)cc([N+](=O)[O-])c2sc(N3CCN(CC4CCCCC4)CC3)nc(=O)c12
- CLint scaled at 20 µM [4]: 39 mL/min/kg
- hepatic extraction ratio at 1.5 h, 20 µM [5]: 0.661
- MIC [1]: 0.056 µM (≈ 0.0263 µg/mL)
- CC50 at 72 h [2]: 53 µM
- microsomal CLint at 20 µM [6]: 33.7 µL/min/mg
- selectivity ratio [3]: 50000
- half-life at 20 µM [7]: 0.692 h

Structure (SMILES): O=c1nc(N2CCN(CC3CCCCC3)CC2)sc2c([N+](=O)[O-])cc(C(F)(F)F)cc12 [MACOZINONE]
- MIC [1]: 0.0011 µM (≈ 0.000502 µg/mL)
- CC50 at 72 h [2]: > 110 µM
- selectivity ratio [3]: 100000

Structure (SMILES): C#Cc1c(C(F)(F)F)cc([N+](=O)[O-])c2sc(N3CCC4(CC3)OC[C@H](C)O4)nc(=O)c12
- MIC [1]: > 8.78 µM
- CC50 at 72 h [2]: 9 µM
- selectivity ratio [3]: 1

Structure (SMILES): C[C@H]1COC2(CCN(c3nc(=O)c4cc(C(F)(F)F)cc([N+](=O)[O-])c4s3)CC2)O1 [BTZ-043]
- Drug metabolism [11]: Metabolite_Detected
- MIC [1]: 0.00348 µM (≈ 0.0015 µg/mL)
- half-life at 77 µM [8]: 2.3 h
- Drug metabolism [12]: Metabolite_Detected
- CC50 at 72 h [2]: > 120 µM
- Drug metabolism [13]: Metabolite_Detected
- Drug metabolism [14]: Metabolite_Detected
- Drug metabolism [15]: Metabolite_Detected
- Drug metabolism [16]: Metabolite_Detected
- Tmax at 77 µM [9]: 0 h
- Drug metabolism [17]: Metabolite_Detected
- Cmax at 77 µM [10]: 3950 ng/mL
- selectivity ratio [3]: 33300
- Drug metabolism [18]: Metabolite_Detected
- Drug metabolism [19]: Metabolite_Detected
- Drug metabolism [20]: Metabolite_Detected
- Drug metabolism [21]: Metabolite_Detected
- Drug metabolism [22]: Metabolite_Detected

Structure (SMILES): Cc1c(C(F)(F)F)cc([N+](=O)[O-])c2sc(N3CCN(S(=O)(=O)c4ccc(OC(F)(F)F)cc4)CC3)nc(=O)c12
- MIC [1]: > 6.68 µM
- CC50 at 72 h [2]: > 84 µM
- selectivity ratio [3]: 13

Structure (SMILES): Cc1c(C(F)(F)F)cc([N+](=O)[O-])c2sc(N3CCC4(CC3)OC[C@H](C)O4)nc(=O)c12
- Activity [23]: Non-Toxic
- Cmax [24]: 2410 ng/mL
- CLint scaled at 20 µM [4]: 15.9 mL/min/kg
- Activity [25]: Dose-Dependent Effect
- hepatic extraction ratio at 1.5 h, 20 µM [5]: 0.443
- MIC [1]: 0.053 µM (≈ 0.0236 µg/mL)
- half-life [26]: 4.6 h
- half-life at 77 µM [8]: 20.2 h
- AUC [27]: 15600 ng·h/mL
- CC50 at 72 h [2]: > 110 µM
- remaining at 8 h, 77 µM [28]: 76.6%
- microsomal CLint at 20 µM [6]: 13.7 µL/min/mg
- CL/F [29]: 267 mL/min/kg
- Activity [30]: Dose-Dependent Effect
- Tmax [31]: 0.5 h
- Tmax at 77 µM [9]: 0.17 h
- Drug metabolism [32]: Metabolite_Notdetected
- Cmax at 77 µM [10]: 504 ng/mL
- selectivity ratio [3]: 8330
- Vd/F [33]: 108 L/kg
- half-life at 20 µM [7]: 1.7 h

Structure (SMILES): Cc1c(C(F)(F)F)cc2c(=O)nc(N3CCN(S(=O)(=O)c4ccc(OC(F)(F)F)cc4)CC3)sc2c1[N+](=O)[O-]
- MIC [1]: > 6.68 µM
- CC50 at 72 h [2]: > 84 µM
- selectivity ratio [3]: 13

Structure (SMILES): Cc1c(C(F)(F)F)cc2c(=O)nc(N3CCN(CC4CCCCC4)CC3)sc2c1[N+](=O)[O-]
- MIC [1]: 0.797 µM (≈ 0.375 µg/mL)
- CC50 at 72 h [2]: 64 µM
- selectivity ratio [3]: 80

Structure (SMILES): Cc1c(C(F)(F)F)c(C)c2c(=O)nc(N3CCC4(CC3)OC[C@H](C)O4)sc2c1[N+](=O)[O-]
- MIC [1]: 4.35 µM (≈ 2 µg/mL)
- CC50 at 72 h [2]: 93 µM
- selectivity ratio [3]: 21
